Laboratory results: patent publication US12357603B2, “Acyl sulfonamides for treating cancer” (Bayer Aktiengesellschaft, priority 2019, dated 2025)

Experiments:
[1] = target: Recombinant human His-tagged Kat6a protein (amino acids 194-810) (Homo sapiens (Human), UniProt Q92794); assay: Kat6a activity assay (TR-FRET, acetylation of biotinylated Histone-H4-derived peptide); assay type: biochemical; details: 60 mins at 22° C., read-out: KAT6A-DPF/HAT domain IC50 [mol/l] (arithmetic mean)
In short: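 TR-FRET read-out of H4 K8 acetylation, using anti-acetyl-K8 antibody and streptavidin acceptor, after anacardic acid stop; IC50 from four-parameter regression normalized to DMSO. Reaction: recombinant human Kat6a aa 194-810 (insect-cell derived), 220 nM H4 1-24 peptide, 600 nM acetyl-CoA, pH 8, 22 °C, 60 min, compounds 0.01-20 μM.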

MDA-MB-436 cells = assay: Proliferation assay MDA-MB-436, negative control cell line (Alamar Blue, 144 h); assay type: cell-based; details: Homo sapiens, MDA-MB-436, 144 h, arithmetic mean
In short: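 Viability read as Alamar Blue fluorescence (590 nm, 2 h) after 144 h compound exposure at 37 °C, 5% CO2. Cells seeded at 3000 per well in 2.5% FBS DMEM/Ham's F12, dosed a day later over 2.0×10E-9–2.0×10E-5 M in 9 steps with 0.2% DMSO, in triplicate.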

ZR-75-1 cells = assay: Proliferation assay ZR-75-1 (Alamar Blue, 144 h); assay type: cell-based; details: Homo sapiens, ZR-75-1, 144 h, arithmetic mean, read-out: ZR75-1 proliferation assay, EC50 [M] (arithmetic mean)
In short: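 Alamar Blue fluorescence (590 nm, 2 h reagent step) measured viability after 144 h compound exposure at 37 °C, 5% CO2. Compounds spanned 2.0×10E-5 to 2.0×10E-9 M in 9 dilutions at 0.2% DMSO, in triplicate, added 24 h after plating 3000 cells/well in RPMI 1640 plus 2.5% FBS.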

[2] = tested on: ESR1 transcription (luciferase signal in MVLN cells); assay: Repression of ESR1 transcription, luciferase reporter in MVLN cells; assay type: cell-based; details: Homo sapiens, MVLN, inhibition of luciferase signal in MVLN cells; arithmetic mean
In short: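 Luminescence from an ER-driven Vitellogenin A2 element–luciferase reporter was measured after 24 h of treatment of MVLN cells, in duplicate wells. Alamar Blue (2 h, 530/590 nm) served as a cell-density control.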

[3] = target: Recombinant human GST-tagged Kat6b protein (431-end); assay: Kat6b activity assay (TR-FRET, acetylation of biotinylated Histone-H4-derived peptide); assay type: biochemical; details: 30 mins at 22° C., read-out: KAT6B activity assay IC50 [mol/l] (arithmetic mean)
Description: Kat6b inhibitory activities of the compounds described in the present invention were quantified using a Fluorescence Resonance Energy Transfer (TR-FRET) assay which measures acetylation of a synthetic, biotinylated Histone-H4-derived peptide by the enzyme.
In this case 50 nl DMSO were used instead of compounds. […] IC50 values were determined by regression analysis based on a 4 parameter equation (minimum, maximum, ICM, Hill; Y=Max+(Min−Max)/(1+(X/ICso) Hill) using the Screener Software (Genedata).

Recombinant human His-tagged Kat6a protein (amino acids 194-810), sequence (Q92794 194-810): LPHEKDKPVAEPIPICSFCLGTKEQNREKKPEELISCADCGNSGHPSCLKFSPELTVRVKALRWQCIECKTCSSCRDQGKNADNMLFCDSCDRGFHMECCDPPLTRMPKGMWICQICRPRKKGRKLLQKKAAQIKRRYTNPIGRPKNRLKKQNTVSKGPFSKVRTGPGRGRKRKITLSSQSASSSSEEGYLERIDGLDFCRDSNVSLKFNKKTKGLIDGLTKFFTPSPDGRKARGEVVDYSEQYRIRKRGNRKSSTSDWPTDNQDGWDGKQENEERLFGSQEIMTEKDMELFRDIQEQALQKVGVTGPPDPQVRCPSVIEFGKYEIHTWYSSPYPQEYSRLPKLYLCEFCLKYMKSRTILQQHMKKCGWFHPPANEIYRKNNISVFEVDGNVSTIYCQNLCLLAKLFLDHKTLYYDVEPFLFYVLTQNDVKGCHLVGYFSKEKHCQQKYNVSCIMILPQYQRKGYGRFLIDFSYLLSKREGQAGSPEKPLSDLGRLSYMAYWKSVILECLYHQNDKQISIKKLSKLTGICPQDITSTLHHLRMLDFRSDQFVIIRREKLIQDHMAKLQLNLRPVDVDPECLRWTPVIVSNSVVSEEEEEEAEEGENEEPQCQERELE

With `CCCOc1ccccc1S(=O)(=O)NC(=O)c1cc2c(F)cc(N(C)C)cc2o1` [Example 111, 6-(Dimethylamino)-4-fluoro-N-(2-propoxybenzene-1-sulfonyl)-1-benzofuran-2-carboxamide] the IC50 [1] was 8.93 nM, the EC50 (MDA-MB-436 cells) was > 20000 nM and the EC50 (ZR-75-1 cells) was 4.89e-08 M. It also gave an IC50 [2] of 15.4 nM and an IC50 [3] of 19 nM.
With `CN(C)c1ccc2cc(C(=O)NS(=O)(=O)c3ccccc3OC3COC3)oc2c1` [Example 82, 6-(Dimethylamino)-N-{2-[(oxetan-3-yl)oxy]benzene-1-sulfonyl}-1-benzofuran-2-carboxamide] the IC50 [1] was 237 nM, the EC50 (MDA-MB-436 cells) was > 20000 nM and the EC50 (ZR-75-1 cells) was 2e-07 M. It also gave an IC50 [2] of 201 nM and an IC50 [3] of 265 nM.
With `CN(C)c1ccc2cc(C(=O)NS(=O)(=O)c3cc(C(C)(C)C)ccc3OCC3CC3)oc2c1` [Example 180, N-((5-(tert-butyl)-2-(cyclopropylmethoxy)phenyl)sulfonyl)-6-(dimethylamino)benzofuran-2-carboxamide] the IC50 [1] was 4.36 nM, the EC50 (MDA-MB-436 cells) was > 20000 nM and the EC50 (ZR-75-1 cells) was 3.77e-08 M. For the same compound, the IC50 [2] was 22.9 nM and the IC50 [3] was 21.3 nM.
`Cc1ccc2cccc(S(=O)(=O)NC(=O)c3cc4c(C(F)(F)F)cc(N(C)C)cc4o3)c2n1` [Example 196, 6-(Dimethylamino)-N-((2-methylquinolin-8-yl)sulfonyl)-4-(trifluoromethyl)benzofuran-2-carboxamide] was tested, and the IC50 [1] was 1.47 nM, the EC50 (MDA-MB-436 cells) was > 14100 nM and the EC50 (ZR-75-1 cells) was 2.12e-06 M. For the same compound, the IC50 [2] was 295 nM and the IC50 [3] was 1.78 nM.
In the case of `O=C(NS(=O)(=O)c1ccccc1-c1ccccc1)c1cc2ccc(N3CCCC3)cc2o1` [Example 45, N-([1,1′-Biphenyl]-2-sulfonyl)-6-(pyrrolidin-1-yl)-1-benzofuran-2-carboxamide], the IC50 [1] is reported as 3600 nM, the EC50 (MDA-MB-436 cells) is reported as > 20000 nM and the EC50 (ZR-75-1 cells) is reported as 1.19e-05 M. For the same compound, the IC50 [2] was 6450 nM and the IC50 [3] was 1480 nM.
`O=C(NS(=O)(=O)c1ccccc1-c1ccccc1)c1cc2ccc(N3CCCCC3)cc2o1` [Example 47, N-([1,1′-Biphenyl]-2-sulfonyl)-6-(piperidin-1-yl)-1-benzofuran-2-carboxamide] was tested, and the IC50 [1] was 7800 nM, the EC50 (MDA-MB-436 cells) was > 20000 nM and the EC50 (ZR-75-1 cells) was > 2e-05 M. The IC50 [2] was > 20000 nM and the IC50 [3] was 15900 nM.
With `CCN(C)c1ccc2cc(C(=O)NS(=O)(=O)c3ccccc3-c3ccccc3)oc2c1` [Example 1, 6-[Ethyl(methyl)amino]-N-(2-phenylphenyl)sulfonyl-benzofuran-2-carboxamide] the IC50 [1] was 599 nM, the EC50 (MDA-MB-436 cells) was > 20000 nM and the EC50 (ZR-75-1 cells) was 8.93e-07 M. For the same compound, the IC50 [2] was 1840 nM and the IC50 [3] was 836 nM.
For `CCOc1ccc(C(C)C)cc1S(=O)(=O)NC(=O)c1cc2ccc(N(C)C)cc2o1` [Example 129, 6-(Dimethylamino)-N-[2-ethoxy-5-(propan-2-yl)benzene-1-sulfonyl]-1-benzofuran-2-carboxamide], the IC50 [1] was 13.5 nM, the EC50 (MDA-MB-436 cells) was > 20000 nM and the EC50 (ZR-75-1 cells) was 6.17e-07 M. For the same compound, the IC50 [2] was 28.6 nM and the IC50 [3] was 16.8 nM.
`CC(C)c1ccc(OCC2CC2)c(S(=O)(=O)NC(=O)c2cc3ccc(N(C)C)cc3o2)c1` [Example 177, N-[2-(cyclopropylmethoxy)-5-isopropyl-phenyl]sulfonyl-6-(dimethylamino)benzofuran-2-carboxamide] was tested, and the IC50 [1] was 7.91 nM, the EC50 (ZR-75-1 cells) was 6.97e-08 M and the IC50 [2] was 29.1 nM. It also gave an IC50 [3] of 24 nM.
For `CN(c1ccccc1)c1ccc2cc(C(=O)NS(=O)(=O)c3ccccc3-c3ccccc3)oc2c1` [Example 10, 6-(N-Methylanilino)-N-(2-phenylphenyl)sulfonyl-benzofuran-2-carboxamide], the IC50 [1] was 900 nM, the IC50 [2] was 13600 nM and the IC50 [3] was 1490 nM.
`CN(C)c1ccc2cc(C(=O)NS(=O)(=O)c3ccc(-c4ccccc4)cc3)oc2c1` [Example 15, N-([1,1′-biphenyl]-4-sulfonyl)-6-(dimethylamino)-1-benzofuran-2-carboxamide] showed an IC50 [1] of 112 nM, an EC50 (ZR-75-1 cells) of 4.28e-06 M and an IC50 [2] of 5000 nM. For the same compound, the IC50 [3] was 235 nM.
With `Cc1ccccc1S(=O)(=O)NC(=O)c1cc2ccc(N(C)C)cc2o1` [Example 32, 6-(Dimethylamino)-N-(2-methylbenzene-1-sulfonyl)-1-benzofuran-2-carboxamide] the IC50 [1] was 224 nM, the EC50 (MDA-MB-436 cells) was > 20000 nM and the EC50 (ZR-75-1 cells) was 3.78e-07 M. For the same compound, the IC50 [3] was 423 nM.
For `COc1cc(C)ccc1S(=O)(=O)NC(=O)c1cc2ccc(N(C)C)cc2o1` [Example 127, 6-(Dimethylamino)-N-(2-methoxy-4-methylbenzene-1-sulfonyl)-1-benzofuran-2-carboxamide], the IC50 [1] was 71.2 nM, the EC50 (MDA-MB-436 cells) was > 20000 nM and the IC50 [2] was 62.5 nM. For the same compound, the IC50 [3] was 56.2 nM.
`CN(C)c1cc(F)c2cc(C(=O)NS(=O)(=O)c3ccccc3-c3ccccc3)oc2c1` [Example 12, N-([1,1′-Biphenyl]-2-sulfonyl)-6-(dimethylamino)-4-fluoro-1-benzofuran-2-carboxamide] showed an IC50 [1] of 13.3 nM, an EC50 (ZR-75-1 cells) of 5.72e-08 M and an IC50 [2] of 61.7 nM. The IC50 [3] was 18.2 nM.
With `CN(C)c1ccc2cc(C(=O)NS(=O)(=O)c3ccccc3C#N)oc2c1` [Example 33, N-(2-Cyanobenzene-1-sulfonyl)-6-(dimethylamino)-1-benzofuran-2-carboxamide] the IC50 [1] was 2720 nM, the EC50 (MDA-MB-436 cells) was > 20000 nM and the EC50 (ZR-75-1 cells) was 6.26e-06 M. For the same compound, the IC50 [3] was > 20000 nM.
`CN(C)c1ccc2cc(C(=O)NS(=O)(=O)c3cccc4c3OCC4)oc2c1` [Example 30, N-(2,3-Dihydro-1-benzofuran-7-sulfonyl)-6-(dimethylamino)-1-benzofuran-2-carboxamide] was tested, and the IC50 [1] was 137 nM, the IC50 [2] was > 20000 nM and the IC50 [3] was 497 nM.
In the case of `CN(C)c1ccc2cc(C(=O)NS(=O)(=O)c3ccccc3-c3ccccc3)sc2c1` [Example 48, N-([1,1′-Biphenyl]-2-sulfonyl)-6-(dimethylamino)-1-benzothiophene-2-carboxamide], the IC50 [1] is reported as 310 nM, the EC50 (MDA-MB-436 cells) is reported as > 20000 nM and the IC50 [2] is reported as 785 nM. The IC50 [3] was 450 nM.
For `CN(C)c1ccc2cc(C(=O)NS(=O)(=O)c3ccccc3OC(F)(F)F)oc2c1` [Example 31, 6-(Dimethylamino)-N-[2-(trifluoromethoxy)benzene-1-sulfonyl]-1-benzofuran-2-carboxamide], the IC50 [1] was 53 nM, the EC50 (MDA-MB-436 cells) was > 20000 nM and the EC50 (ZR-75-1 cells) was 8.14e-08 M. For the same compound, the IC50 [3] was 59.1 nM.
With `Cc1cc(Cl)c2cccc(S(=O)(=O)NC(=O)c3cc4ccc(N(C)C)cc4o3)c2n1` [Example 83, N-(4-Chloro-2-methylquinoline-8-sulfonyl)-6-(dimethylamino)-1-benzofuran-2-carboxamide] the IC50 [1] was 48.8 nM, the EC50 (ZR-75-1 cells) was 1.13e-06 M and the IC50 [2] was 209 nM. For the same compound, the IC50 [3] was 55.4 nM.
`COc1cccc(S(=O)(=O)N(C)C)c1S(=O)(=O)NC(=O)c1cc2ccc(N(C)C)cc2o1` [Example 141, 6-(Dimethylamino)-N-[2-(dimethylsulfamoyl)-6-methoxybenzene-1-sulfonyl]-1-benzofuran-2-carboxamide] was tested, and the IC50 [1] was 317 nM, the EC50 (MDA-MB-436 cells) was > 20000 nM and the EC50 (ZR-75-1 cells) was 1.92e-06 M. The IC50 [2] was 1760 nM.
In the case of `CN(C)c1ccc2cc(C(=O)NS(=O)(=O)c3ccc(N)c4cccnc34)oc2c1` [Example 166, N-(5-Aminoquinoline-8-sulfonyl)-6-(dimethylamino)-1-benzofuran-2-carboxamide], the IC50 [1] is reported as 56.4 nM, the EC50 (MDA-MB-436 cells) is reported as 6310 nM and the EC50 (ZR-75-1 cells) is reported as 1.5e-07 M. For the same compound, the IC50 [2] was 150 nM.
`CN(C)c1ccc2cc(C(=O)NS(=O)(=O)c3ccccc3F)oc2c1` [Example 34, 6-(Dimethylamino)-N-(2-fluorobenzene-1-sulfonyl)-1-benzofuran-2-carboxamide] was tested, and the IC50 [1] was 417 nM, the EC50 (MDA-MB-436 cells) was > 20000 nM and the EC50 (ZR-75-1 cells) was 5.78e-07 M. For the same compound, the IC50 [3] was 504 nM.
